Values of other authors as cited in US20110118243A1, “ANTI-INFLAMMATORY DRUG DELIVERY SYSTEM” (priority 2008, published 2011).

Settings: in horses

CCCCC1C(=O)N(c2ccccc2)N(c2ccccc2)C1=O [phenylbutazone, 4-butyl-diphenyl-3,5-pyrazoidinedione]
Plasma half-life: 5 to 6 h
